Measurements: patent US10414811B2, “Protease-resistant lipidated GLP-1 analogs” (MEDIMMUNE LIMITED, priority 2015, dated 2019)
Like-named read-outs stand apart in the source and are kept apart here. Numbered stars: 1 amine (or outer) side, 2 acyl side, 3 side chain; on linkers, the order of the positions; unused ones are H or OH. Square brackets hold non-standard residues; d marks the D form. Side chains are listed from the residue outwards. Peptide text beside a SMILES is read from it. * marks the point of attachment. γGlu = O=C(O)[C@H](CCC(=O)[*:2])N[*:1]; αMeF = C[C@](N)(Cc1ccccc1)C(=O)O; αMeK = C[C@](N)(CCCCN)C(=O)O; Lauroyl = CCCCCCCCCCCC(=O)*; αMeS = C[C@](N)(CO)C(=O)O; AEEA = NCCOCCOCC(=O)O; Aib = CC(C)(N)C(=O)O

Tests used:
Assay type in all cases: cell-based
Details in all cases: tris-lipidated peptides
[1] = molecular target: T1, human GLP-1 receptor (GLP-1R) (Homo sapiens, UniProt P43220); test: cAMP assay, human GLP-1R cells
T1 construct: expressed in transfected cells
In short: (§1)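 Peptide-stimulated cAMP measured by two-step HTRF after a 30 min room-temperature incubation with receptor-expressing cells (hGLP-1R, hGIPR at 1×10^5 cells/ml; hGCGR at 2×10^5 cells/ml). Duplicate dilutions; EC50 from 4-parameter logistic fit of % Delta F.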

[2] = molecular target: T2, human glucagon receptor (GCGR) (Homo sapiens, UniProt P47871); test: cAMP assay, human GCGR cells
T2 construct: expressed in transfected cells
In short: as §1

[3] = molecular target: T3, human glucose-dependent insulinotropic peptide receptor (GIPR) (Homo sapiens, UniProt P48546); test: cAMP assay, human GIPR cells
T3 construct: expressed in transfected cells
T3 sequence (P48546 22-466): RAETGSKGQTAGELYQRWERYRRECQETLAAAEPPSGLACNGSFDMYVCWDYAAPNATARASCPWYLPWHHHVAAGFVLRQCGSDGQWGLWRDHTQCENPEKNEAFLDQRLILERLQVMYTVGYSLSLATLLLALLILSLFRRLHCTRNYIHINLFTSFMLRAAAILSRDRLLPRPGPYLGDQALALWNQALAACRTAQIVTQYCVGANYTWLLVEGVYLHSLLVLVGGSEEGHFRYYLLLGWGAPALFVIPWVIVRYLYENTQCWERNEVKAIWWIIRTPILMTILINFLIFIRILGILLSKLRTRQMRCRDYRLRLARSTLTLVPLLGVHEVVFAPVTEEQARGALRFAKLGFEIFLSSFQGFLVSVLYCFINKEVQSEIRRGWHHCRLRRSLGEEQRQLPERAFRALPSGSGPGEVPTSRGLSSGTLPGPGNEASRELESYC
In short: as §1

[4] = mean of n1 and n2, read-out: Primary assay EC50 Mean pM GLP-1R
[5] = replicate n1, read-out: Primary assay EC50 GLP-1R n1
[6] = replicate n2, read-out: Primary assay EC50 GLP-1R n2
[7] = first replicate, read-out: Primary assay EC50 Gluc-R (n1)
[8] = first replicate, read-out: Primary assay EC50 GIP-R (n1)
[9] = second replicate, read-out: Primary assay EC50 GIP-R (n2)

T2 sequence (P47871 26-477): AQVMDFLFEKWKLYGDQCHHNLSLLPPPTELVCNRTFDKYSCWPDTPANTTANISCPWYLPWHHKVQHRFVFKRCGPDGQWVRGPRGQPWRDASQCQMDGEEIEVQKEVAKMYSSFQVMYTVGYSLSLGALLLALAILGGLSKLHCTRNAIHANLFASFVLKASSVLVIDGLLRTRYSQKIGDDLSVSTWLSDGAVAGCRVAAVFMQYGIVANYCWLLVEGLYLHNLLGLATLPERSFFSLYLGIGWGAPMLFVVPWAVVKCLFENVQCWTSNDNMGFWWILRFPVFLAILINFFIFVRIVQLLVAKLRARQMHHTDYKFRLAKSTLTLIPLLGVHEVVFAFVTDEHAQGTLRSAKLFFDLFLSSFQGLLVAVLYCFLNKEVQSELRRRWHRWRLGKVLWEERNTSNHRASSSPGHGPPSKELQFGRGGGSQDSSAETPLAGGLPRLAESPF
T1 sequence (P43220 24-463): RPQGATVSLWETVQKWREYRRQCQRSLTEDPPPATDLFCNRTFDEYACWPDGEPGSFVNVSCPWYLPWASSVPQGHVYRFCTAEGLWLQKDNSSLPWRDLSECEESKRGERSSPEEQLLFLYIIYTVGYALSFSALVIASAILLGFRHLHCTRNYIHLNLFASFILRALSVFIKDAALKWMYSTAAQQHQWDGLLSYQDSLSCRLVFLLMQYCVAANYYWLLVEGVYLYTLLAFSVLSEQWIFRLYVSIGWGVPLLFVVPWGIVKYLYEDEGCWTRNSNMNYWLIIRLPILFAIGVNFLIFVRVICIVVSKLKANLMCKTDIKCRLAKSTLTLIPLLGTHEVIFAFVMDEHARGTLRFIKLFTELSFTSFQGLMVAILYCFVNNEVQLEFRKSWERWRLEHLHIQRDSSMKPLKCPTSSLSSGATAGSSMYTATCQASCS

Structure (SMILES)	EC50 [1, 4]	EC50 [1, 5]	EC50 [1, 6]	EC50 [2, 7]	EC50 [3, 8]	EC50 ([2]; second replicate, read-out: Primary assay EC50 Gluc-R (n2))	EC50 [3, 9]
CCCCCCCCCCCC(=O)N[C@@H](CCC(=O)NCCOCCOCC(=O)NCCOCCOCC(=O)NCCCC[C@H](NC(=O)[C@H](CCC(=O)O)NC(=O)[C@H](CC(C)C)NC(=O)[C@H](Cc1ccc(O)cc1)NC(=O)[C@H](CO)NC(=O)[C@H](CO)NC(=O)[C@H](CCCCNC(=O)COCCOCCNC(=O)COCCOCCNC(=O)CC[C@H](NC(=O)CCCCCCCCCCC)C(=O)O)NC(=O)[C@H](CC(=O)O)NC(=O)[C@H](CO)NC(=O)[C@@H](NC(=O)[C@](C)(Cc1ccccc1)NC(=O)[C@H](CO)NC(=O)CNC(=O)[C@H](CCC(=O)O)NC(=O)C(C)(C)NC(=O)[C@@H](N)Cc1c[nH]cn1)[C@@H](C)O)C(=O)N[C@@H](CCC(=O)O)C(=O)N[C@@H](C)C(=O)N[C@@H](C)C(=O)N[C@@](C)(CCCCN)C(=O)N[C@@H](CCC(=O)O)C(=O)N[C@@H](Cc1ccccc1)C(=O)N[C@H](C(=O)N[C@@H](C)C(=O)N[C@@H](Cc1ccccc1)C(=O)N[C@@H](CCCCNC(=O)COCCOCCNC(=O)COCCOCCNC(=O)CC[C@H](NC(=O)CCCCCCCCCCC)C(=O)O)C(=O)N[C@H](C(=O)N[C@@H](CCC(=O)O)C(=O)NCC(=O)NCC(N)=O)C(C)C)[C@@H](C)CC)C(=O)O [compound 471] (H-H[Aib]EGS[αMeF]TSDK([AEEA-AEEA-γGlu-Lauroyl])SSYLEK([AEEA-AEEA-γGlu-Lauroyl])EAA[αMeK]EFIAFK([AEEA-AEEA-γGlu-Lauroyl])VEGG-NH2)	374 pM	277 pM	470 pM	≥ 19.6 nM	≥ 19.6 nM	–	–
CCCCCCCCCCCC(=O)N[C@@H](CCC(=O)NCCOCCOCC(=O)NCCOCCOCC(=O)NCCCC[C@H](NC(=O)[C@H](CCC(=O)O)NC(=O)CNC(=O)[C@H](CCC(=O)O)NC(=O)[C@H](CC(C)C)NC(=O)[C@H](Cc1ccc(O)cc1)NC(=O)[C@H](CO)NC(=O)[C@H](CO)NC(=O)[C@H](CCCCNC(=O)COCCOCCNC(=O)COCCOCCNC(=O)CC[C@H](NC(=O)CCCCCCCCCCC)C(=O)O)NC(=O)[C@H](CC(=O)O)NC(=O)[C@H](CO)NC(=O)[C@@H](NC(=O)[C@](C)(Cc1ccccc1)NC(=O)[C@H](CO)NC(=O)CNC(=O)[C@H](CCC(=O)O)NC(=O)C(C)(C)NC(=O)[C@@H](N)Cc1c[nH]cn1)[C@@H](C)O)C(=O)N[C@@H](C)C(=O)N[C@@](C)(CCCCN)C(=O)N[C@@H](CCC(=O)O)C(=O)N[C@@H](Cc1ccccc1)C(=O)N[C@H](C(=O)N[C@@H](C)C(=O)N[C@@H](Cc1ccccc1)C(=O)N[C@@H](CCCCNC(=O)COCCOCCNC(=O)COCCOCCNC(=O)CC[C@H](NC(=O)CCCCCCCCCCC)C(=O)O)C(=O)N[C@H](C(=O)N[C@@H](CCC(=O)O)C(=O)NCC(=O)NCC(N)=O)C(C)C)[C@@H](C)CC)C(=O)O [compound 473] (H-H[Aib]EGS[αMeF]TSDK([AEEA-AEEA-γGlu-Lauroyl])SSYLEGEK([AEEA-AEEA-γGlu-Lauroyl])A[αMeK]EFIAFK([AEEA-AEEA-γGlu-Lauroyl])VEGG-NH2; N-terminus assumed)	434 pM	399 pM	470 pM	–	–	19.6 nM	19.6 nM
CCCCCCCCCCCC(=O)N[C@@H](CCC(=O)NCCOCCOCC(=O)NCCOCCOCC(=O)NCCCC[C@H](NC(=O)[C@H](CCC(=O)O)NC(=O)[C@H](CC(C)C)NC(=O)[C@H](CCCCNC(=O)COCCOCCNC(=O)COCCOCCNC(=O)CC[C@H](NC(=O)CCCCCCCCCCC)C(=O)O)NC(=O)[C@H](CO)NC(=O)[C@](C)(CO)NC(=O)[C@@H](NC(=O)[C@H](CC(=O)O)NC(=O)[C@H](CO)NC(=O)[C@@H](NC(=O)[C@](C)(Cc1ccccc1)NC(=O)[C@H](CO)NC(=O)CNC(=O)[C@H](CCC(=O)O)NC(=O)C(C)(C)NC(=O)[C@@H](N)Cc1c[nH]cn1)[C@@H](C)O)C(C)C)C(=O)N[C@@H](CCC(=O)O)C(=O)N[C@@H](C)C(=O)N[C@@H](C)C(=O)N[C@@](C)(CCCCN)C(=O)N[C@@H](CCC(=O)O)C(=O)N[C@@H](Cc1ccccc1)C(=O)N[C@H](C(=O)N[C@@H](C)C(=O)N[C@@H](Cc1ccccc1)C(=O)N[C@@H](CCCCNC(=O)COCCOCCNC(=O)COCCOCCNC(=O)CC[C@H](NC(=O)CCCCCCCCCCC)C(=O)O)C(=O)N[C@H](C(=O)N[C@@H](CCC(=O)O)C(=O)NCC(=O)NCC(N)=O)C(C)C)[C@@H](C)CC)C(=O)O [compound 479] (H-H[Aib]EGS[αMeF]TSDV[αMeS]SK([AEEA-AEEA-γGlu-Lauroyl])LEK([AEEA-AEEA-γGlu-Lauroyl])EAA[αMeK]EFIAFK([AEEA-AEEA-γGlu-Lauroyl])VEGG-NH2)	186 pM	132 pM	239 pM	19.8 nM	–	–	19.8 nM
CCCCCCCCCCCC(=O)N[C@@H](CCC(=O)NCCOCCOCC(=O)NCCOCCOCC(=O)NCCCC[C@H](NC(=O)[C@H](CCC(=O)O)NC(=O)[C@H](CCCCNC(=O)COCCOCCNC(=O)COCCOCCNC(=O)CC[C@H](NC(=O)CCCCCCCCCCC)C(=O)O)NC(=O)[C@H](Cc1ccc(O)cc1)NC(=O)[C@H](CO)NC(=O)[C@](C)(CO)NC(=O)[C@@H](NC(=O)[C@H](CC(=O)O)NC(=O)[C@H](CO)NC(=O)[C@@H](NC(=O)[C@](C)(Cc1ccccc1)NC(=O)[C@H](CO)NC(=O)CNC(=O)[C@H](CCC(=O)O)NC(=O)C(C)(C)NC(=O)[C@@H](N)Cc1c[nH]cn1)[C@@H](C)O)C(C)C)C(=O)N[C@@H](CCC(=O)O)C(=O)N[C@@H](C)C(=O)N[C@@H](C)C(=O)N[C@@](C)(CCCCN)C(=O)N[C@@H](CCC(=O)O)C(=O)N[C@@H](Cc1ccccc1)C(=O)N[C@H](C(=O)N[C@@H](C)C(=O)N[C@@H](Cc1ccccc1)C(=O)N[C@@H](CCCCNC(=O)COCCOCCNC(=O)COCCOCCNC(=O)CC[C@H](NC(=O)CCCCCCCCCCC)C(=O)O)C(=O)N[C@H](C(=O)N[C@@H](CCC(=O)O)C(=O)NCC(=O)NCC(N)=O)C(C)C)[C@@H](C)CC)C(=O)O [compound 483] (H-H[Aib]EGS[αMeF]TSDV[αMeS]SYK([AEEA-AEEA-γGlu-Lauroyl])EK([AEEA-AEEA-γGlu-Lauroyl])EAA[αMeK]EFIAFK([AEEA-AEEA-γGlu-Lauroyl])VEGG-NH2; N-terminus assumed)	244 pM	229 pM	258 pM	≥ 19.6 nM	≥ 19.6 nM	–	–
CCCCCCCCCCCC(=O)N[C@@H](CCC(=O)NCCOCCOCC(=O)NCCOCCOCC(=O)NCCCC[C@H](NC(=O)CNC(=O)[C@H](CCC(=O)O)NC(=O)[C@H](CCCCNC(=O)COCCOCCNC(=O)COCCOCCNC(=O)CC[C@H](NC(=O)CCCCCCCCCCC)C(=O)O)NC(=O)[C@H](Cc1ccc(O)cc1)NC(=O)[C@H](CO)NC(=O)[C@](C)(CO)NC(=O)[C@@H](NC(=O)[C@H](CC(=O)O)NC(=O)[C@H](CO)NC(=O)[C@@H](NC(=O)[C@](C)(Cc1ccccc1)NC(=O)[C@H](CO)NC(=O)CNC(=O)[C@H](CCC(=O)O)NC(=O)C(C)(C)NC(=O)[C@@H](N)Cc1c[nH]cn1)[C@@H](C)O)C(C)C)C(=O)N[C@@H](C)C(=O)N[C@@H](C)C(=O)N[C@@](C)(CCCCN)C(=O)N[C@@H](CCC(=O)O)C(=O)N[C@@H](Cc1ccccc1)C(=O)N[C@H](C(=O)N[C@@H](C)C(=O)N[C@@H](Cc1ccccc1)C(=O)N[C@@H](CCCCNC(=O)COCCOCCNC(=O)COCCOCCNC(=O)CC[C@H](NC(=O)CCCCCCCCCCC)C(=O)O)C(=O)N[C@H](C(=O)N[C@@H](CCC(=O)O)C(=O)NCC(=O)NCC(N)=O)C(C)C)[C@@H](C)CC)C(=O)O [compound 484] (H-H[Aib]EGS[αMeF]TSDV[αMeS]SYK([AEEA-AEEA-γGlu-Lauroyl])EGK([AEEA-AEEA-γGlu-Lauroyl])AA[αMeK]EFIAFK([AEEA-AEEA-γGlu-Lauroyl])VEGG-NH2)	–	163 pM	–	≥ 19.9 nM	≥ 19.9 nM	–	–
CCCCCCCCCCCC(=O)N[C@@H](CCC(=O)NCCOCCOCC(=O)NCCOCCOCC(=O)NCCCC[C@H](NC(=O)[C@H](CCC(=O)O)NC(=O)CNC(=O)[C@H](CCC(=O)O)NC(=O)[C@H](CCCCNC(=O)COCCOCCNC(=O)COCCOCCNC(=O)CC[C@H](NC(=O)CCCCCCCCCCC)C(=O)O)NC(=O)[C@H](Cc1ccc(O)cc1)NC(=O)[C@H](CO)NC(=O)[C@](C)(CO)NC(=O)[C@@H](NC(=O)[C@H](CC(=O)O)NC(=O)[C@H](CO)NC(=O)[C@@H](NC(=O)[C@](C)(Cc1ccccc1)NC(=O)[C@H](CO)NC(=O)CNC(=O)[C@H](CCC(=O)O)NC(=O)C(C)(C)NC(=O)[C@@H](N)Cc1c[nH]cn1)[C@@H](C)O)C(C)C)C(=O)N[C@@H](C)C(=O)N[C@@](C)(CCCCN)C(=O)N[C@@H](CCC(=O)O)C(=O)N[C@@H](Cc1ccccc1)C(=O)N[C@H](C(=O)N[C@@H](C)C(=O)N[C@@H](Cc1ccccc1)C(=O)N[C@@H](CCCCNC(=O)COCCOCCNC(=O)COCCOCCNC(=O)CC[C@H](NC(=O)CCCCCCCCCCC)C(=O)O)C(=O)N[C@H](C(=O)N[C@@H](CCC(=O)O)C(=O)NCC(=O)NCC(N)=O)C(C)C)[C@@H](C)CC)C(=O)O [compound 485] (H-H[Aib]EGS[αMeF]TSDV[αMeS]SYK([AEEA-AEEA-γGlu-Lauroyl])EGEK([AEEA-AEEA-γGlu-Lauroyl])A[αMeK]EFIAFK([AEEA-AEEA-γGlu-Lauroyl])VEGG-NH2)	195 pM	167 pM	224 pM	19.6 nM	19.6 nM	–	–
